Experimental data as given in the kinase profiling compilation of Christmann-Franck et al. (2016).

What was measured:
Assay in all cases: radiometric filter-binding kinase assay
[1] = target: TBK1 (human) (UniProt Q9UHD2)
[2] = target: FGFR1 (human) (UniProt P11362)
[3] = target: MAP2K6 (human) (UniProt P52564)
[4] = target: BRSK1 (human) (UniProt Q8TDC3)
[5] = target: MAPKAPK3 (human) (UniProt Q16644)
[6] = target: IKBKB (human) (UniProt O14920); conditions: compound 0.01 µM
[7] = target: EPHA4 (human) (UniProt P54764)
[8] = target: EEF2K (human) (UniProt O00418)
[9] = system: PAK2 (human), Q13177 [T402E]
[10] = target: RPS6KA5 KD1 KD2 (human) (UniProt O75582)
[11] = target: PAK7 (human) (UniProt Q9P286)
[12] = system: AKT1 (human), P31749 [S473D]
[13] = target: MKNK2 (human) (UniProt Q9HBH9)
[14] = target: MAPK8 (human) (UniProt P45983)
[15] = target: PLK1 (human) (UniProt P53350)
[16] = target: CSK (human) (UniProt P41240)
[17] = target: MAP3K5 (human) (UniProt Q99683)
[18] = target: MAPK3 (human) (UniProt P27361)
[19] = target: CSNK1D (human) (UniProt P48730)
[20] = target: AURKA (human) (UniProt O14965)
[21] = target: NEK6 (human) (UniProt Q9HC98)
[22] = target: BRSK2 (human) (UniProt Q8IWQ3)
[23] = target: HIPK3 (human) (UniProt Q9H422)
[24] = target: MAPK1 (human) (UniProt P28482)
[25] = target: MAPK15 (human) (UniProt Q8TD08)
[26] = target: BTK (human) (UniProt Q06187)
[27] = target: HIPK1 (human) (UniProt Q86Z02)
[28] = target: MAP2K2 (human) (UniProt P36507)
[29] = target: GSK3B (human) (UniProt P49841)
[30] = target: STK11 CAB39 STRADA (human) (UniProt Q9Y376+Q7RTN6+Q15831)
[31] = target: MAP3K1 (human) (UniProt Q13233)
[32] = target: ERBB4 (human) (UniProt Q15303)
[33] = target: SRPK1 (human) (UniProt Q96SB4)
[34] = target: MAPK9 (human) (UniProt P45984)
[35] = target: RPS6KA3 KD1 KD2 (human) (UniProt P51812)

Sequence of NEK6 (human) (Q9HC98 whole entry, looked up): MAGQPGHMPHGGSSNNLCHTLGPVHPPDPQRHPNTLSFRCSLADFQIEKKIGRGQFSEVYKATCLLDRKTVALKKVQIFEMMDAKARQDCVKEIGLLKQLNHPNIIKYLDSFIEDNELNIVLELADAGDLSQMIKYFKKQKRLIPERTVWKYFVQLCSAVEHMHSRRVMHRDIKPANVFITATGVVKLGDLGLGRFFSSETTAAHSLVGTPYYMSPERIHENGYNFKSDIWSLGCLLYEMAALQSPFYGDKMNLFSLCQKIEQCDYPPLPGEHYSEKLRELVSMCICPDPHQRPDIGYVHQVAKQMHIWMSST
Sequence of PLK1 (human) (P53350 whole entry, looked up): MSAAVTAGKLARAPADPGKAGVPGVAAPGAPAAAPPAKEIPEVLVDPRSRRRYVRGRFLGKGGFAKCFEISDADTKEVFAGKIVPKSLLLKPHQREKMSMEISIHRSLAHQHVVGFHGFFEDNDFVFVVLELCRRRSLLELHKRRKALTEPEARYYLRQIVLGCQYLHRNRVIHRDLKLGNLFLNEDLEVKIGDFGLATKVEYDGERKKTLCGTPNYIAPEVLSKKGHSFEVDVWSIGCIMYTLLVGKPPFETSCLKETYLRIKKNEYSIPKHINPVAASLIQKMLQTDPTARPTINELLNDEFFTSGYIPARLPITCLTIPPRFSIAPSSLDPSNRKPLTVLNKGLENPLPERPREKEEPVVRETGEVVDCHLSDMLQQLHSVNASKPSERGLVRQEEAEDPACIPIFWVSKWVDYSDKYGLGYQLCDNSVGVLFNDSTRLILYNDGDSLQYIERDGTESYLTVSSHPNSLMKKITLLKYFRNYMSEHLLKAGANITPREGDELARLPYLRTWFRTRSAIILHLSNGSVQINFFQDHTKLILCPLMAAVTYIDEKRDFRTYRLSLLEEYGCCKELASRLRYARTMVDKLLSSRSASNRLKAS
Sequence of RPS6KA5 KD1 KD2 (human) (O75582 whole entry, looked up): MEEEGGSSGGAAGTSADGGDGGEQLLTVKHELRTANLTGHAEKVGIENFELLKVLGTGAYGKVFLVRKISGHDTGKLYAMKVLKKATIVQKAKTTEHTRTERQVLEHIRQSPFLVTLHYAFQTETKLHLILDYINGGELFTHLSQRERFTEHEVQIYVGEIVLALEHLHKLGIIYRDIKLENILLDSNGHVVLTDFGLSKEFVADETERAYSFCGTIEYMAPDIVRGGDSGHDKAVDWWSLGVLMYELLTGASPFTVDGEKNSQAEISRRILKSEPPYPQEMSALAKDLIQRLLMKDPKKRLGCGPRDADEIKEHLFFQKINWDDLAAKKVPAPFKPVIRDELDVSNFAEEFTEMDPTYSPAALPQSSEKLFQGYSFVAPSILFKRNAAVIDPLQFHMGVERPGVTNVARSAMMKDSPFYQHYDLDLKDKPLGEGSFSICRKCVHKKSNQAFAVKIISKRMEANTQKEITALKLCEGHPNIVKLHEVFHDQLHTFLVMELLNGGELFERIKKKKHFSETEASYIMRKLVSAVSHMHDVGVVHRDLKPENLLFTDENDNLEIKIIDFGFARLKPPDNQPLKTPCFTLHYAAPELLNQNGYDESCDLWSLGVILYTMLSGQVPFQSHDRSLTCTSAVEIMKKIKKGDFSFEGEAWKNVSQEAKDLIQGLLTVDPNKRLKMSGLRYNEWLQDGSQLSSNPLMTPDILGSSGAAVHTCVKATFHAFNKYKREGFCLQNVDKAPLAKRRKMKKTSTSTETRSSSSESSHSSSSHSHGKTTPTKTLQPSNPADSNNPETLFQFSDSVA
Sequence of EPHA4 (human) (P54764 whole entry, looked up): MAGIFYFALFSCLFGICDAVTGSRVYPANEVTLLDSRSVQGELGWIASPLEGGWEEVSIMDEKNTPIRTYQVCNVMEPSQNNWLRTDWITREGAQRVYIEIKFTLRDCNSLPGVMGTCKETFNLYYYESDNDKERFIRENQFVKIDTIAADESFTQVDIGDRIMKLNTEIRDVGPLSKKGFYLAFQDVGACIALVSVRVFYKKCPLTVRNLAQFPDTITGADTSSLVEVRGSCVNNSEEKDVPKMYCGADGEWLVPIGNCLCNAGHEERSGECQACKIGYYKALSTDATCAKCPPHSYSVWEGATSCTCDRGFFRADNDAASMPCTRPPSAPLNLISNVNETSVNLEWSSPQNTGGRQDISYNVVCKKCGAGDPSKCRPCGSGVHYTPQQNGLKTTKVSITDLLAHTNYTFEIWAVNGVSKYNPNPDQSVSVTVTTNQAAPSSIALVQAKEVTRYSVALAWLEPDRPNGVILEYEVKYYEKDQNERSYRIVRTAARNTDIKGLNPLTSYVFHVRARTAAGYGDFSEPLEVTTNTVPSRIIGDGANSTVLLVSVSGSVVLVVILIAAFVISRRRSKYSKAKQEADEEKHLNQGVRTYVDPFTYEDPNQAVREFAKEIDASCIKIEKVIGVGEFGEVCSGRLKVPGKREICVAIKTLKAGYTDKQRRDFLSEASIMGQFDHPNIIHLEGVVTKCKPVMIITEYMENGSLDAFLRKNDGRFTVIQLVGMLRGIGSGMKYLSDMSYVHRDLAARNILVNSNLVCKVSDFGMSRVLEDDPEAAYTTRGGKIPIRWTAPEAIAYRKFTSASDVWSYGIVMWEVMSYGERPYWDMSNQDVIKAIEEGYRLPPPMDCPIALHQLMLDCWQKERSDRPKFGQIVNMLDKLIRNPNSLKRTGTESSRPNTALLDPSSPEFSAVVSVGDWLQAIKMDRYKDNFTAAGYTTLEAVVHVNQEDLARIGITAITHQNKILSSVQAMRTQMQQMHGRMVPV
Sequence of HIPK3 (human) (Q9H422 whole entry, looked up): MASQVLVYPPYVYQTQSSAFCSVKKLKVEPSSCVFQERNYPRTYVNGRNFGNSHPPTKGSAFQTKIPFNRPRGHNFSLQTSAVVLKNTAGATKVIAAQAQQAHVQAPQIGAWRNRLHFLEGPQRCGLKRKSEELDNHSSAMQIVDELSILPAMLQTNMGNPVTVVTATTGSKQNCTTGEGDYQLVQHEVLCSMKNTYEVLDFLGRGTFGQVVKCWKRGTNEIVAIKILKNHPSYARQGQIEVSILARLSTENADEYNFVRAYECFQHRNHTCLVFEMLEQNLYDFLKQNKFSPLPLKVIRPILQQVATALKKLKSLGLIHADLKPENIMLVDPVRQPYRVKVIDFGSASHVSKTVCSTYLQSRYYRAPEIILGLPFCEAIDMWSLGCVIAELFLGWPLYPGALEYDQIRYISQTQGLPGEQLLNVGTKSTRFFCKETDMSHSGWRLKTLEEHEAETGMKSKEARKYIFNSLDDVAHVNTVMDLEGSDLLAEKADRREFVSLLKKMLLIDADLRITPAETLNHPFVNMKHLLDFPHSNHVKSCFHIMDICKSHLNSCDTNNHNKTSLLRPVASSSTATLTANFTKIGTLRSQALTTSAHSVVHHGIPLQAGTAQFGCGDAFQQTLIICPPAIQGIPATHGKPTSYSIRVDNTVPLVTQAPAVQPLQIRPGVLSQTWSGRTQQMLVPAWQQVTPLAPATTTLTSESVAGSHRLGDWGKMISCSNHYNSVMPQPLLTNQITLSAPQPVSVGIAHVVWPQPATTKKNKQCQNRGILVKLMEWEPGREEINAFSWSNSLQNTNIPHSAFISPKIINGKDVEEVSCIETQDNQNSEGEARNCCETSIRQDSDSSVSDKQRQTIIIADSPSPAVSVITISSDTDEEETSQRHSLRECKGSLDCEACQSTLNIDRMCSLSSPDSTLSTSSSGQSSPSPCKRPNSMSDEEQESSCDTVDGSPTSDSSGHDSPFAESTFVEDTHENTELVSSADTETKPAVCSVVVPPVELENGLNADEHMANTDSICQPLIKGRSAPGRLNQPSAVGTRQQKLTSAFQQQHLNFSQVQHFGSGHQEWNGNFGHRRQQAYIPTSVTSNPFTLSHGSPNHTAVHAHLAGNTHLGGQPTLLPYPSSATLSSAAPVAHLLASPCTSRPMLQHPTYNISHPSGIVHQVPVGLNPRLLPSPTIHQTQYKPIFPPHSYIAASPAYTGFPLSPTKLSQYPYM
Sequence of PAK7 (human) (Q9P286 whole entry, looked up): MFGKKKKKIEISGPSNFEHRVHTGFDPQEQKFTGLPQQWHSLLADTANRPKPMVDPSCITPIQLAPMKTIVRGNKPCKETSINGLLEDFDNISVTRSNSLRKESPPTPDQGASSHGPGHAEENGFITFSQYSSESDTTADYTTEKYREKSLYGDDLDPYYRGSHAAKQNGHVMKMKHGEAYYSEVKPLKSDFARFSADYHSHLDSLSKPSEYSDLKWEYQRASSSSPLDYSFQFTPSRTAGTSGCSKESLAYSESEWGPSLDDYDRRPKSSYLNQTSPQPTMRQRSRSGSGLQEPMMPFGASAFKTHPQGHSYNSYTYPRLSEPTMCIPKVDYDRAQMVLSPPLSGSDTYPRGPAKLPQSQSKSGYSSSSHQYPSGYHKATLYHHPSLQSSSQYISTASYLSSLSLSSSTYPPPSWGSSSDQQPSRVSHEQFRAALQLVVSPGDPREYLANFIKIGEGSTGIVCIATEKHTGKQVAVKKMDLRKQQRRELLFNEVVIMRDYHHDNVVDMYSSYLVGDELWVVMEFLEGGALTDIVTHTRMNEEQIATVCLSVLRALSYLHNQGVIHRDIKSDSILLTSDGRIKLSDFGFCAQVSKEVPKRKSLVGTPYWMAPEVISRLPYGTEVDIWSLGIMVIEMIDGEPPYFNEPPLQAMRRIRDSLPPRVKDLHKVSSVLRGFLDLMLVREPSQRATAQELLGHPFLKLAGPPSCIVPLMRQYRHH
Sequence of AURKA (human) (O14965 whole entry, looked up): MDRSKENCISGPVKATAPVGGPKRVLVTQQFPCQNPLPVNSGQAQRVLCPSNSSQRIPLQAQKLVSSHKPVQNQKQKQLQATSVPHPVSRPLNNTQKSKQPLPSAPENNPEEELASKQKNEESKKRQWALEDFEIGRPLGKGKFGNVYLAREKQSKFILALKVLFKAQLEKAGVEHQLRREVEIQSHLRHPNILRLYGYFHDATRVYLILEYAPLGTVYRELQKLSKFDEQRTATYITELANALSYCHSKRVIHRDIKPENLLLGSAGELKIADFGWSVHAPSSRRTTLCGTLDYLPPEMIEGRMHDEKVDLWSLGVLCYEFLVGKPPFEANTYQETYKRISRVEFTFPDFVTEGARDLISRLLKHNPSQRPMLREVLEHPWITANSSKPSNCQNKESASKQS

residual activity ([1]; compound 0.01 µM): 99%
residual activity ([1]; compound 0.1 µM): 101%
residual activity ([1]; compound 1.0 µM): 102%
residual activity ([2]; compound 0.01 µM): 111%
residual activity ([2]; compound 0.1 µM): 105%
residual activity ([2]; compound 1.0 µM): 101%
residual activity ([3]; compound 0.01 µM): 100%
residual activity ([3]; compound 0.1 µM): 110%
residual activity ([3]; compound 1.0 µM): 85%
residual activity ([4]; compound 0.01 µM): 102%
residual activity ([4]; compound 0.1 µM): 90%
residual activity ([4]; compound 1.0 µM): 95%
residual activity ([5]; compound 0.01 µM): 97%
residual activity ([5]; compound 0.1 µM): 114%
residual activity ([5]; compound 1.0 µM): 97%
residual activity [6]: 79%
residual activity ([7]; compound 0.01 µM): 101%
residual activity ([7]; compound 0.1 µM): 124%
residual activity ([7]; compound 1.0 µM): 93%
residual activity ([8]; compound 0.01 µM): 99%
residual activity ([8]; compound 0.1 µM): 118%
residual activity ([8]; compound 1.0 µM): 84%
residual activity ([9]; compound 0.01 µM): 110%
residual activity ([9]; compound 0.1 µM): 126%
residual activity ([9]; compound 1.0 µM): 104%
residual activity ([10]; compound 0.01 µM): 114%
residual activity ([10]; compound 0.1 µM): 114%
residual activity ([10]; compound 1.0 µM): 95%
residual activity ([11]; compound 0.01 µM): 97%
residual activity ([11]; compound 0.1 µM): 114%
residual activity ([11]; compound 1.0 µM): 91%
residual activity ([12]; compound 0.01 µM): 97%
residual activity ([12]; compound 0.1 µM): 95%
residual activity ([12]; compound 1.0 µM): 104%
residual activity ([13]; compound 0.01 µM): 95%
residual activity ([13]; compound 1.0 µM): 91%
residual activity ([14]; compound 0.01 µM): 87%
residual activity ([14]; compound 0.1 µM): 93%
residual activity ([14]; compound 1.0 µM): 91%
residual activity ([15]; compound 0.01 µM): 104%
residual activity ([15]; compound 0.1 µM): 128%
residual activity ([15]; compound 1.0 µM): 103%
residual activity ([16]; compound 0.01 µM): 96%
residual activity ([16]; compound 0.1 µM): 95%
residual activity ([16]; compound 1.0 µM): 89%
residual activity ([17]; compound 0.01 µM): 98%
residual activity ([17]; compound 0.1 µM): 54%
residual activity ([17]; compound 1.0 µM): 11%
residual activity ([18]; compound 0.01 µM): 120%
residual activity ([18]; compound 0.1 µM): 127%
residual activity ([18]; compound 1.0 µM): 116%
residual activity ([19]; compound 0.01 µM): 92%
residual activity ([19]; compound 0.1 µM): 93%
residual activity ([19]; compound 1.0 µM): 59%
residual activity ([20]; compound 0.01 µM): 108%
residual activity ([20]; compound 0.1 µM): 128%
residual activity ([20]; compound 1.0 µM): 96%
residual activity ([21]; compound 0.01 µM): 114%
residual activity ([21]; compound 0.1 µM): 113%
residual activity ([21]; compound 1.0 µM): 101%
residual activity ([22]; compound 0.01 µM): 116%
residual activity ([22]; compound 0.1 µM): 116%
residual activity ([22]; compound 1.0 µM): 109%
residual activity ([23]; compound 0.01 µM): 101%
residual activity ([23]; compound 0.1 µM): 102%
residual activity ([23]; compound 1.0 µM): 96%
residual activity ([24]; compound 0.01 µM): 92%
residual activity ([24]; compound 0.1 µM): 96%
residual activity ([24]; compound 1.0 µM): 102%
residual activity ([26]; compound 0.01 µM): 108%
residual activity ([26]; compound 0.1 µM): 103%
residual activity ([26]; compound 1.0 µM): 101%
residual activity ([27]; compound 0.01 µM): 96%
residual activity ([27]; compound 0.1 µM): 96%
residual activity ([27]; compound 1.0 µM): 92%
residual activity ([28]; compound 0.01 µM): 90%
residual activity ([28]; compound 0.1 µM): 90%
residual activity ([28]; compound 1.0 µM): 69%
residual activity ([29]; compound 0.01 µM): 87%
residual activity ([29]; compound 0.1 µM): 92%
residual activity ([29]; compound 1.0 µM): 79%
residual activity ([30]; compound 0.01 µM): 107%
residual activity ([30]; compound 0.1 µM): 132%
residual activity ([30]; compound 1.0 µM): 105%
residual activity ([31]; compound 0.01 µM): 97%
residual activity ([31]; compound 0.1 µM): 108%
residual activity ([31]; compound 1.0 µM): 91%
residual activity ([32]; compound 0.01 µM): 106%
residual activity ([32]; compound 0.1 µM): 88%
residual activity ([32]; compound 1.0 µM): 88%
residual activity ([33]; compound 0.01 µM): 100%
residual activity ([33]; compound 0.1 µM): 90%
residual activity ([33]; compound 1.0 µM): 102%
residual activity ([34]; compound 0.01 µM): 89%
residual activity ([34]; compound 0.1 µM): 84%
residual activity ([34]; compound 1.0 µM): 90%
residual activity ([35]; compound 0.01 µM): 112%
residual activity ([35]; compound 0.1 µM): 106%
residual activity ([35]; compound 1.0 µM): 89%
SMILES: O=C(Nc1nc2cc(C(F)(F)F)cc(NC3CC3)n2n1)c1cccnc1
residual activity ([25]; compound 0.01 µM): 102%
residual activity ([25]; compound 0.1 µM): 110%
residual activity ([25]; compound 1.0 µM): 102%
